From publication PMC5218480 (PLoS ONE, 2017)

What was measured:
Experiment in all cases: HDAC enzyme assay, in vitro biochemical
Conditions in all cases: maximum concentration tested of 20 μM
HDAC4 = target: T1, HDAC4 (Homo sapiens, UniProt P56524)
T1 construct: purchased BPS Biosciences
Experimental: (§1) In vitro biochemical assays were performed as described previously. Specifically, compounds were dissolved and diluted in assay buffer (50 mM HEPES, pH 7.4, 100 mM KCl, 0.001% Tween-20, 0.05% BSA, and 20 μM Tris (2-carboxyethyl) phosphine) to 6-fold the final concentration. […] The amount of substrate (acetyl-lysine tripeptide) used for each enzyme was equal to the Michaelis constant (Km), as determined by a titration curve. Substrate was diluted in assay buffer to 6-fold of the final concentration with 0.3 μM sequencing grade trypsin (Sigma-Aldrich). The substrate/trypsin mix was added to the enzyme/compound mix and the plate was shaken for 5 seconds and then placed into a SpectraMax M5 microtiter (Molecular Devices) plate reader. The enzymatic reaction was monitored over 30 minutes for release of […] after deacetylation of the lysine side chain in the peptide substrate, and the linear rate of the reaction was calculated.
(§2) biochemical assay for HDAC4, HDAC5, HDAC6, HDAC7, HDAC8, HDAC9 inhibition by ACY-1035.
(§3) (1 picture or pasted object on this page, not shown here)

HDAC5 = target: T2, HDAC5 (Homo sapiens, UniProt Q9UQL6)
T2 construct: purchased BPS Biosciences
T2 sequence (Q9UQL6 whole entry): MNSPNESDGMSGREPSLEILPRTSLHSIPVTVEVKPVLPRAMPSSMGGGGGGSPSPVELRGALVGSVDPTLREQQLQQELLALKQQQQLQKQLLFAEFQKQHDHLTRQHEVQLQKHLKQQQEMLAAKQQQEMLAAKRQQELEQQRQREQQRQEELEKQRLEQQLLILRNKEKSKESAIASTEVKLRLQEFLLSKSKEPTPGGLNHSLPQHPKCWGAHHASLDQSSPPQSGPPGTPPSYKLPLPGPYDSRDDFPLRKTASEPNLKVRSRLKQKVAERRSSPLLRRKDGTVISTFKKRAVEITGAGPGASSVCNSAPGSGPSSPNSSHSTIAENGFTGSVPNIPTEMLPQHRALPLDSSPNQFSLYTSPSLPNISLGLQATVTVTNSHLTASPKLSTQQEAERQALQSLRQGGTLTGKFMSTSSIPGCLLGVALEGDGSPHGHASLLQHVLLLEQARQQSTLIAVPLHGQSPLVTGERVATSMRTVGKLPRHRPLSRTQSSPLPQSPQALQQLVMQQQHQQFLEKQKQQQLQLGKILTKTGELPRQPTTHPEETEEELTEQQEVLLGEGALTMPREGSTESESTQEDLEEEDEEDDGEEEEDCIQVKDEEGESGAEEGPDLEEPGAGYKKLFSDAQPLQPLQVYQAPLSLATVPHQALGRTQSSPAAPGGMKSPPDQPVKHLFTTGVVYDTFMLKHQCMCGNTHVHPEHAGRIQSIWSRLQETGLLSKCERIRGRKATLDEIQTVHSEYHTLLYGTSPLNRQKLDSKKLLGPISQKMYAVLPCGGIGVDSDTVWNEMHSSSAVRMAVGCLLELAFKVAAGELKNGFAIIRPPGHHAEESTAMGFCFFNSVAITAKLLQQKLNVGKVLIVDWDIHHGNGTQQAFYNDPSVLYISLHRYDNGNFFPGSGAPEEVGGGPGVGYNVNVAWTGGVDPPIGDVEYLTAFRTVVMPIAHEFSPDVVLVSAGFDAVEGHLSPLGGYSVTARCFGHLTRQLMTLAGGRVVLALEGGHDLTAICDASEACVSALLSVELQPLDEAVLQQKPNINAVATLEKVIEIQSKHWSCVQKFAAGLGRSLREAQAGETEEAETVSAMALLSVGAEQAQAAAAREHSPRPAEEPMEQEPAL
Experimental: as §1, §2, §3

HDAC7 = target: T3, HDAC7 (Homo sapiens, UniProt Q8WUI4)
T3 construct: purchased BPS Biosciences
T3 sequence (Q8WUI4 1-952): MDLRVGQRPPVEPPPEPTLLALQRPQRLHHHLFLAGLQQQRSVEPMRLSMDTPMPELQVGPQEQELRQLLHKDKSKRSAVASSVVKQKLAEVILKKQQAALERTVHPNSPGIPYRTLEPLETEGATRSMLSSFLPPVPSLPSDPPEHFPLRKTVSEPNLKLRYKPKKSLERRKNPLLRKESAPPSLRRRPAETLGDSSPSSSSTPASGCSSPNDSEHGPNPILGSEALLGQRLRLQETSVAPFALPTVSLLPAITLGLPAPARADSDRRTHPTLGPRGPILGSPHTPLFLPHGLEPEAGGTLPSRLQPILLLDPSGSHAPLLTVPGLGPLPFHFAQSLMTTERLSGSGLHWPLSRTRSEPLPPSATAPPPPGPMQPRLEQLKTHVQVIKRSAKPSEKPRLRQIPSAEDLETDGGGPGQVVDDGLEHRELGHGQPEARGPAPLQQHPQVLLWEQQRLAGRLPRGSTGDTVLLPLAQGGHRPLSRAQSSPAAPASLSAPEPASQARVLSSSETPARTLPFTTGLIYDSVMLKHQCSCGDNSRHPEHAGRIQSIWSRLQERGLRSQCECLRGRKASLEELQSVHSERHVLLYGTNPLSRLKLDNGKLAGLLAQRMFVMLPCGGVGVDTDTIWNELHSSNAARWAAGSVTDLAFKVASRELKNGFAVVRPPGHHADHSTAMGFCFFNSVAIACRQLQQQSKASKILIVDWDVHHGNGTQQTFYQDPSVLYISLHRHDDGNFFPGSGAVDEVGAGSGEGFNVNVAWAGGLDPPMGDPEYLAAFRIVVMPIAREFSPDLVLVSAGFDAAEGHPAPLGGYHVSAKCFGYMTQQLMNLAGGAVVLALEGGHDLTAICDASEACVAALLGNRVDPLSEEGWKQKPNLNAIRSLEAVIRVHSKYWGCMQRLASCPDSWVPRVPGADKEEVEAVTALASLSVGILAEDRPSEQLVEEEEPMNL
Experimental: as §1, §2, §3

HDAC8 = target: T4, HDAC8 (Homo sapiens, UniProt Q9BY41)
T4 construct: purchased BPS Biosciences
T4 sequence (Q9BY41 1-377): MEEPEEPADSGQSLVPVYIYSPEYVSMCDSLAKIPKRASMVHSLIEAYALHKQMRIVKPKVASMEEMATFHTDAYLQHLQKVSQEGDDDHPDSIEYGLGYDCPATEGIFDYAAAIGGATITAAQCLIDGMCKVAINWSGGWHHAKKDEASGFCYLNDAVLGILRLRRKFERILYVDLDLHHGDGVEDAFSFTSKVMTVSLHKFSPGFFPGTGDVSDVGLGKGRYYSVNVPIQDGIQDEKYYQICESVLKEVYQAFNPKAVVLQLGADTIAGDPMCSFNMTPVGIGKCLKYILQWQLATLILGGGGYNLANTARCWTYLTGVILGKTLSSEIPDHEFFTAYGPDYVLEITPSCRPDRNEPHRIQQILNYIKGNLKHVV
Experimental: as §1, §2, §3

HDAC9 = target: T5, HDAC9 (Homo sapiens, UniProt Q9UKV0)
T5 construct: purchased BPS Biosciences
T5 sequence (Q9UKV0 whole entry): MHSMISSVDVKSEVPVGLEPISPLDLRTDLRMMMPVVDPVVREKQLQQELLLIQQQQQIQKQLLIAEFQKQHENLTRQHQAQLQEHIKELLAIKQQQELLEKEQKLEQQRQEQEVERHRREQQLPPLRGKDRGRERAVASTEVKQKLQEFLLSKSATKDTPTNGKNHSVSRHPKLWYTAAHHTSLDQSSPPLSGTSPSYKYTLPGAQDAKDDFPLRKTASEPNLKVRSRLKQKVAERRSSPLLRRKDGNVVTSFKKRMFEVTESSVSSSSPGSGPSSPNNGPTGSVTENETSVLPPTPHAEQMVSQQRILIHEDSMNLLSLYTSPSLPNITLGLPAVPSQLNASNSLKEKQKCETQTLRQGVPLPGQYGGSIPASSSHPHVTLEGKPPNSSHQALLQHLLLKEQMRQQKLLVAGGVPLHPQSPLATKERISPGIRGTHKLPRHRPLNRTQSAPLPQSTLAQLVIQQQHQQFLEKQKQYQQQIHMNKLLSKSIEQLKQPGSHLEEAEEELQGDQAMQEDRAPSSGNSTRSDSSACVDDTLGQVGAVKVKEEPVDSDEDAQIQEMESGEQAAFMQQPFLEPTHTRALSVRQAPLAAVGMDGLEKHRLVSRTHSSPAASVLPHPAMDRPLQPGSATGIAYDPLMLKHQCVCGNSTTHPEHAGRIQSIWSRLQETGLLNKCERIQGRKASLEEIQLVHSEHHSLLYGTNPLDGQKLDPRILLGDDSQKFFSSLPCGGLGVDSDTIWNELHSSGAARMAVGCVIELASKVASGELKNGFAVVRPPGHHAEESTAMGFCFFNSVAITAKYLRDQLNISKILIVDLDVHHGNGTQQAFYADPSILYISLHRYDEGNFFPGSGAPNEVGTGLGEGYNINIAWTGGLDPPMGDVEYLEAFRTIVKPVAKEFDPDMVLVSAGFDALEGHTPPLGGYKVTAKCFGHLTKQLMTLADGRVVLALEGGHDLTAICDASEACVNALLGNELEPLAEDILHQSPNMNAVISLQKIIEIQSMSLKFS
Experimental: as §1, §2, §3

T1 sequence (P56524 whole entry): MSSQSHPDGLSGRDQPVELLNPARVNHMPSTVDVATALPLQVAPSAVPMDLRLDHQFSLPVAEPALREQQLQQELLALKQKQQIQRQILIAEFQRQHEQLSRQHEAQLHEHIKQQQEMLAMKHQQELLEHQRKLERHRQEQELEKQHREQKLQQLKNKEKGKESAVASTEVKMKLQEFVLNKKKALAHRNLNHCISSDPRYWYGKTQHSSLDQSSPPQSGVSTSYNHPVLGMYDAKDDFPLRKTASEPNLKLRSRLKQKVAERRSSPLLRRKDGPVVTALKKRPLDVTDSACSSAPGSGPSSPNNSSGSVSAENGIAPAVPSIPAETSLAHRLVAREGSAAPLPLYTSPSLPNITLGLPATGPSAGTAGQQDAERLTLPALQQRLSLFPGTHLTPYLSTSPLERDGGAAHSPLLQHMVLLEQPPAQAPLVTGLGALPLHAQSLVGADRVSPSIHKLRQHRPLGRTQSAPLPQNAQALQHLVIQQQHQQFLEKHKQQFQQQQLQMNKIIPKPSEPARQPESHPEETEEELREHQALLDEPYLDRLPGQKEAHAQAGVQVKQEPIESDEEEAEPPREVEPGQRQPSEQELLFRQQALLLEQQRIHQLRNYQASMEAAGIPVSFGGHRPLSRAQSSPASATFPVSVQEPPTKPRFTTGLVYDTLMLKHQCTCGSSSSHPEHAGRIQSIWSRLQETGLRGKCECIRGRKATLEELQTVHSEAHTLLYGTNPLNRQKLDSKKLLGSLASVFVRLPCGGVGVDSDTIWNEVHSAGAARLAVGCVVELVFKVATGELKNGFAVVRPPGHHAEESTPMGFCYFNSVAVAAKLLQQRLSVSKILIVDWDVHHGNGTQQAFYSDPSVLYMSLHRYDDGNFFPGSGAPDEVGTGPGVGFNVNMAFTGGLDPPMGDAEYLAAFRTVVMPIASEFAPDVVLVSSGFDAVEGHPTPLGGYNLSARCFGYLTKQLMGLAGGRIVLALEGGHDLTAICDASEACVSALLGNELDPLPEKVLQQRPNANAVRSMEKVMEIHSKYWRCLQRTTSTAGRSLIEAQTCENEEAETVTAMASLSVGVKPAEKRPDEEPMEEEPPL

Nc1ccc(-c2cccs2)cc1NC(=O)c1ccc2c(c1)cc(C1CC1)n2CCN1CCOCC1 [ACY-1035]
did not inhibit: inhibition of HDAC4 (HDAC4) | inhibition of HDAC5 (HDAC5) | inhibition of HDAC7 (HDAC7) | inhibition of HDAC8 (HDAC8) | inhibition of HDAC9 (HDAC9)
